Laboratory results published in US20240059728A1, “NOVEL GALACTOSIDE INHIBITOR OF GALECTINS” (GALECTO BIOTECH AB, priority 2021, published 2024).
pKd: −log10 of the molar value.

Tests used:
Galectin-1 = Galectin-1 (Homo sapiens (Human), UniProt P09382); experiment: fluorescence anisotropy assay, galectin-1; type: binding; conditions: inhibition of the interaction between galectin and a fluorescein tagged saccharide probe
Experimental: (§1) The affinity of Example 1-14 for galectins were determined by a fluorescence anisotropy assay where the compound was used as an inhibitor of the interaction between galectin and a fluorescein tagged saccharide probe as described Sörme, P., Kahl-Knutsson, B., Huflejt, M., Nilsson, U. J., and Leffler H. (2004) Fluorescence polarization as an analytical tool to evaluate galectin-ligand interactions. Anal. Biochem. 334: 36-47, (Sarme et al., 2004) and Monovalent interactions of Galectin-1 By Salomonsson, Emma; Larumbe, Amaia; Tejler, Johan; Tullberg, Erik; Rydberg, Hanna; Sundin, Anders; Khabut, Areej; Frejd, Torbjorn; Lobsanov, Yuri D.; Rini, James M.; et al, From Biochemistry (2010), 49(44), 9518-9532, (Salomonsson et al., 2010).

Galectin-3 = Galectin-3 (Homo sapiens (Human), UniProt P17931); experiment: fluorescence anisotropy assay, galectin-3; type: binding; conditions: inhibition of the interaction between galectin and a fluorescein tagged saccharide probe
Galectin-3, sequence (P17931 whole entry): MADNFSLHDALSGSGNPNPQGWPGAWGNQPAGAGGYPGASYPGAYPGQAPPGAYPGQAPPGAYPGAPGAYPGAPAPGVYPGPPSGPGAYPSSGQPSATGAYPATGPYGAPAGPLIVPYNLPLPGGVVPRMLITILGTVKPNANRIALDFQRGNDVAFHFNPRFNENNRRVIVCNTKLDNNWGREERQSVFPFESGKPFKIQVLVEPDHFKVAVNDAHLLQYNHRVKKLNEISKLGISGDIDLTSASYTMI
Experimental: as §1

Galectin-1, sequence (P09382 whole entry): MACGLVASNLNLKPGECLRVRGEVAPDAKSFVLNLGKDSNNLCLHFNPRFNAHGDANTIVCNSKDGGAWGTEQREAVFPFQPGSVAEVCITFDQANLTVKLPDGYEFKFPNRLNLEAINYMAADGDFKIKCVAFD

Row | SMILES | pKd (Galectin-1) | pKd (Galectin-3)
1 | OCC1O[C@@H](S[C@@H]2O[C@H](CO)C(O)C(n3cc(-c4csc(O)n4)nn3)[C@H]2O)C(O)[C@@H](n2cc(-c3cc(F)c(Cl)c(F)c3)nn2)[C@H]1O (stereo partly drawn) [Example 2, 3-[4-(4-Chloro-3,5-difluorophenyl)-1H-1,2,3-triazol-1-yl]-3,3′-dideoxy-3′-[4-(2-hydroxythiazol-4-yl)-1H-1,2,3-triazol-1-yl]-1,1′-sulfanediyl-di-β-D-galactopyranoside] | 8.40 | 9.52
2 | OCC1O[C@@H](S[C@@H]2O[C@H](CO)C(O)C(n3cc(-c4csc(O)n4)nn3)[C@H]2O)C(O)[C@@H](n2cc(-c3cc(F)c(F)c(F)c3)nn2)[C@H]1O (stereo partly drawn) [Example 1, 3,3′-Dideoxy-3-[4-(3,4,5-trifluorophenyl)-1H-1,2,3-triazol-1-yl]-3′-[4-(2-hydroxythiazol-4-yl)-1H-1,2,3-triazol-1-yl]-1,1′-sulfanediyl-di-β-D-galactopyranoside] | 8.52 | 9.40
3 | OCC1O[C@@H](S[C@@H]2O[C@H](CO)C(O)C(n3cc(-c4ccc(Cl)c(F)c4F)nn3)[C@H]2O)C(O)[C@@H](n2cc(-c3ccc(Cl)c(F)c3F)nn2)[C@H]1O (stereo partly drawn) [Example 14, 1,1′-Sulfanediyl-bis-{3-[4-(4-chloro-2,3-difluorophenyl)-1H-1,2,3-triazol-1-yl]-3-deoxy-β-D-galactopyranoside}] | 6.35 | 7.92
4 | Nc1nc(-c2cn(C3C(O)[C@@H](CO)O[C@@H](S[C@@H]4OC(CO)[C@H](O)[C@H](n5cc(-c6cc(F)c(Cl)c(F)c6)nn5)C4O)[C@@H]3O)nn2)cs1 (stereo partly drawn) [Example 3, 3′-[4-(2-Aminothiazol-4-yl)-1H-1,2,3-triazol-1-yl]-3-[4-(4-chloro-3,5-difluorophenyl)-1H-1,2,3-triazol-1-yl]-3,3′-dideoxy-1,1′-sulfanediyl-di-β-D-galactopyranoside] | 8.05 | 9.00
